Target: recombinant human CCR5 receptor (Homo sapiens, UniProt P51681)
Assay: in vitro radioligand binding assay, inhibition of MIP-1α binding (scintillation proximity)
Settings: displacement of 0.1 nM iodinated MIP-1α; membranes from Chinese hamster ovary cells expressing CCR5; negative log10 of IC50 (M); average if tested more than once
Experimental: The ability of compounds to inhibit the binding of MIP-1α was assessed by an in vitro radioligand binding assay. Membranes were prepared from Chinese hamster ovary cells which expressed the recombinant human CCR5 receptor. These membranes were incubated with 0.1 nM iodinated MIP-1α, scintillation proximity beads and various concentrations of the compounds of the invention in 96-well plates. The amount of iodinated MP-1α bound to the receptor was determined by scintillation counting. Competition curves were obtained for compounds and the concentration of compound which displaced 50% of bound iodinated MIP-1α was calculated (IC50).
In Table III the results are presented as Pic50 values. […] If a compound was tested more than once then the data below is an average of the probative tests results.

recombinant human CCR5 receptor, sequence (P51681 whole entry): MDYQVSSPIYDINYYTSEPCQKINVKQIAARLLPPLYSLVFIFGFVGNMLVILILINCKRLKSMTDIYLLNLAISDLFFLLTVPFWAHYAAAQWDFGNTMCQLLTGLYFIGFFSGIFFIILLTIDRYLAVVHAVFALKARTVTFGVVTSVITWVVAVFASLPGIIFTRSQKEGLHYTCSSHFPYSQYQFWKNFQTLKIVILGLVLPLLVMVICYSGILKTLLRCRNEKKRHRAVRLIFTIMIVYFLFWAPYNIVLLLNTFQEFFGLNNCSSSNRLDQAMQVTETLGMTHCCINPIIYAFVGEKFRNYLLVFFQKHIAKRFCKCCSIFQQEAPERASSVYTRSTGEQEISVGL

Structure (SMILES) | IC50 [M]
CS(=O)(=O)c1ccc([C@@H](CCN2CCC(n3cnc4cc(S(C)(=O)=O)ccc43)CC2)c2ccccc2)cc1 [Compound No. 5] | 3.98e-09
CS(=O)(=O)c1ccc([C@@H](CCN2CCC(c3nc(Cc4ccccc4)no3)CC2)c2ccccc2)cc1 [Compound No. 4] | 1.58e-08
Cc1noc(C2CCN(CC[C@@H](c3ccccc3)c3ccc(S(C)(=O)=O)cc3)CC2)n1 [Compound No. 13] | 1.58e-07
CS(=O)(=O)c1ccc([C@@H](CCN2CCC(n3cnc4cc(S(C)(=O)=O)ccc43)CC2)c2ccc(Cl)s2)cc1 [Compound No. 9] | 2e-08
CS(=O)(=O)c1ccc([C@@H](CCN2CCC(n3cnc4cc(S(C)(=O)=O)ccc43)CC2)c2cc(Cl)cs2)cc1 [Compound No. 10] | 2e-08
CS(=O)(=O)c1ccc([C@@H](CCN2CCC(n3cnc4cc(S(C)(=O)=O)ccc43)CC2)c2cccs2)cc1 [Compound No. 8] | 1e-08
CS(=O)(=O)c1ccc(Cc2noc(C3CCN(CC[C@@H](c4ccccc4)c4ccc(S(C)(=O)=O)cc4)CC3)n2)cc1 [Compound No. 3] | 1.26e-09
Cc1nnc(C(C)C)n1C1CCN(CC[C@H](c2ccc(S(C)(=O)=O)cc2)c2cccc(F)c2)CC1 [Compound No. 2] | 3.98e-08
CS(=O)(=O)c1ccc([C@@H](CCN2CCC(n3cnc4cc(S(C)(=O)=O)ccc43)CC2)c2cc(F)cc(F)c2)cc1 [Compound No. 11] | 1e-09
CSc1ccc(Cc2noc(C3CCN(CCC(c4ccccc4)c4ccc(S(C)(=O)=O)cc4)CC3)n2)cc1 (stereo not shown) [Compound No. 6] | 6.31e-08
CS(=O)(=O)c1ccc([C@@H](CCN2CCC(n3cnc4cc(S(C)(=O)=O)ccc43)CC2)c2ccsc2)cc1 [Compound No. 7] | 1e-08
CS(=O)(=O)c1ccc([C@@H](CCN2CCC(n3cnc4cc(S(C)(=O)=O)ccc43)CC2)c2cccc(F)c2)cc1 [Compound No. 1, (R)-1-{1-[3-(3-fluoro-phenyl)-3-(4-methanesulfonyl-phenyl)-propyl]-piperidin-4-yl}-5-methanesulfonyl-1H-benzoimidazole] | 1e-09
Cc1nnc(C(C)C)n1C1CCN(CC[C@H](c2ccc(S(C)(=O)=O)cc2)c2cc(F)cc(F)c2)CC1 [Compound No. 12] | 2e-08

From patent US7294636B2, “Chemical compounds” (AstraZeneca AB, priority 2003, dated 2007)
